Experimental data taken from patent publication US9833497B2, “Human originated EGF domain proteins and use of the same” (CHENGDU SOURCEBIO LIMITED-LIABILITY COMPANY, priority 2013, dated 2017).

What was measured:
Format in all cases: cell-based
Citrobacter diversus = test: MIC against Gram-negative bacteria: Citrobacter diversus; conditions: for MIC (μg/mL) C. diversus / MIC against C. diversus: 5×10^5 CFU/mL
Outline: (§1)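 Bacteria grown in LB at 37° C to McFarland 0.5, resuspended and seeded at 5×10^5 CFU/mL in 96-well plates. Purified human EGF-domain proteins two-fold serially diluted, triplicate wells; cultured at 37° C, shaking 175 rpm. MIC = lowest protein concentration with no growth.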

Moraxella catarrhalis = test: MIC against Gram-negative bacteria: Moraxella catarrhalis; conditions: for MIC (μg/mL) M. catarrhalis / MIC against M. catarrhalis: 5×10^5 CFU/mL
Outline: as §1

E. coli DH5α = test: Antibacterial activity: MIC and growth curve against E. coli DH5α in 96-well plate; conditions: minimal inhibitory concentration against E. coli DH5α; 96-well plate, 5×10^5 CFU/mL, 37° C., judged after 8 h
Outline: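 Log-phase DH5α (OD600 about 0.5, 37° C, 185 rpm in LB) was pelleted, resuspended in fresh LB and seeded at 5×10^5 CFU/mL with recombinant protein at 50, 25 and 12.5 μg/mL (two-fold series), in triplicate. Plates were shaken at 175 rpm, 37° C, and OD600 was read every 30 min. MIC was the lowest concentration with no growth.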

Proteus vulgaris = test: MIC against Gram-negative bacteria: Proteus vulgaris; conditions: for MIC (μg/mL) P. vulgaris / MIC against P. vulgaris: 5×10^5 CFU/mL
Outline: as §1

Serratia marcescens = test: MIC against Gram-negative bacteria: Serratia marcescens; conditions: for MIC (μg/mL) S. marcescens / MIC against S. marcescens: 5×10^5 CFU/mL
Outline: as §1

Klebsiella pneumonia = test: MIC against Gram-negative bacteria: Klebsiella pneumonia; conditions: for MIC (μg/mL) K. pneumonia / MIC against K. pneumonia: 5×10^5 CFU/mL
Outline: as §1

Aeromonas hydrophila = test: MIC against Gram-negative bacteria: Aeromonas hydrophila; conditions: for MIC (μg/mL) A. hydrophila / MIC against A. hydrophila: 5×10^5 CFU/mL
Outline: as §1

Proteus mirabilis = test: MIC against Gram-negative bacteria: Proteus mirabilis; conditions: for MIC (μg/mL) P. mirabilis / MIC against P. mirabilis: 5×10^5 CFU/mL
Outline: as §1

Pseudomonas aeruginosa = test: MIC against Gram-negative bacteria: Pseudomonas aeruginosa; conditions: for MIC (μg/mL) P. aeruginosa / MIC against P. aeruginosa: 5×10^5 CFU/mL
Outline: as §1

Enterobacter cloacae = test: MIC against Gram-negative bacteria: Enterobacter cloacae; conditions: for MIC (μg/mL) E. cloacae / MIC against E. cloacae: 5×10^5 CFU/mL
Outline: as §1

E. coli BL21 = test: MIC against Gram-negative bacteria: E. coli BL21; conditions: E. coli BL21; for MIC (μg/mL) E. coli BL21 / MIC against E. coli BL21: 5×10^5 CFU/mL
Outline: as §1

[1] = Citrobacter diversus, 96-well plate, 37° C., 10 h
[2] = Moraxella catarrhalis, 96-well plate, 37° C., 10 h
[3] = Proteus vulgaris, 96-well plate, 37° C., 10 h
[4] = Serratia marcescens, 96-well plate, 37° C., 10 h
[5] = Klebsiella pneumonia, 96-well plate, 37° C., 10 h
[6] = Aeromonas hydrophila, 96-well plate, 37° C., 10 h
[7] = Proteus mirabilis, 96-well plate, 37° C., 10 h
[8] = Pseudomonas aeruginosa, 96-well plate, 37° C., 10 h
[9] = Enterobacter cloacae, 96-well plate, 37° C., 10 h
[10] = Citrobacter diversus, 10 h cultivation at 37° C.
[11] = Moraxella catarrhalis, 10 h cultivation at 37° C.
[12] = Proteus vulgaris, 10 h cultivation at 37° C.
[13] = Serratia marcescens, 10 h cultivation at 37° C.
[14] = Klebsiella pneumonia, 10 h cultivation at 37° C.
[15] = Aeromonas hydrophila, 10 h cultivation at 37° C.
[16] = Proteus mirabilis, 10 h cultivation at 37° C.
[17] = Pseudomonas aeruginosa, 10 h cultivation at 37° C.
[18] = Enterobacter cloacae, 10 h cultivation at 37° C.
[19] = C. diversus, 10 h cultivation at 37° C.
[20] = M. catarrhalis, 10 h cultivation at 37° C.
[21] = P. vulgaris, 10 h cultivation at 37° C.
[22] = S. marcescens, 10 h cultivation at 37° C.
[23] = K. pneumonia, 10 h cultivation at 37° C.
[24] = A. hydrophila, 10 h cultivation at 37° C.
[25] = P. mirabilis, 10 h cultivation at 37° C.
[26] = P. aeruginosa, 10 h cultivation at 37° C.
[27] = E. cloacae, 10 h cultivation at 37° C.

PRT68 (RSGRCANGVCKNGGTCVNLLIGGFHCVCPPGEYERPYCE; listed as Homo sapiens)
MIC (μg/mL) C. diversus (Citrobacter diversus; [1]): 12.5 µg/mL
MIC (μg/mL) M. catarrhalis (Moraxella catarrhalis; [2]): 12.5 µg/mL
MIC (E. coli DH5α): 12.5 µg/mL
MIC (μg/mL) P. vulgaris (Proteus vulgaris; [3]): 12.5 µg/mL
MIC (μg/mL) S. marcescens (Serratia marcescens; [4]): 100 µg/mL
MIC (μg/mL) K. pneumonia (Klebsiella pneumonia; [5]): 25 µg/mL
MIC (μg/mL) A. hydrophila (Aeromonas hydrophila; [6]): 12.5 µg/mL
MIC (μg/mL) P. mirabilis (Proteus mirabilis; [7]): 12.5 µg/mL
MIC (μg/mL) P. aeruginosa (Pseudomonas aeruginosa; [8]): 12.5 µg/mL
MIC (μg/mL) E. cloacae (Enterobacter cloacae; [9]): 12.5 µg/mL
MIC (μg/mL) E. coli BL21 (E. coli BL21; 96-well plate, 37° C., 10 h): 25 µg/mL

PRT44 (LYAQVSQSKPCERTGSCFSGRCVNSTCLCDPGWVGDQCQ; listed as Homo sapiens)
MIC (μg/mL) C. diversus (Citrobacter diversus; [1]): 12.5 µg/mL
MIC (μg/mL) M. catarrhalis (Moraxella catarrhalis; [2]): 25 µg/mL
MIC (E. coli DH5α): 12.5 µg/mL
MIC (μg/mL) P. vulgaris (Proteus vulgaris; [3]): 25 µg/mL
MIC (μg/mL) S. marcescens (Serratia marcescens; [4]): 12.5 µg/mL
MIC (μg/mL) K. pneumonia (Klebsiella pneumonia; [5]): 12.5 µg/mL
MIC (μg/mL) A. hydrophila (Aeromonas hydrophila; [6]): 25 µg/mL
MIC (μg/mL) P. mirabilis (Proteus mirabilis; [7]): 50 µg/mL
MIC (μg/mL) P. aeruginosa (Pseudomonas aeruginosa; [8]): 25 µg/mL
MIC (μg/mL) E. cloacae (Enterobacter cloacae; [9]): 12.5 µg/mL
MIC (μg/mL) E. coli BL21 (E. coli BL21; 96-well plate, 37° C., 10 h): 12.5 µg/mL

PRT1386 (GSRACPRDCRGRGRCENGVCVCNAGYSGEDC; listed as Homo sapiens)
MIC against C. diversus (Citrobacter diversus; [10]): 12.5 µg/mL
MIC against M. catarrhalis (Moraxella catarrhalis; [11]): 12.5 µg/mL
MIC (E. coli DH5α): 25 µg/mL
MIC against P. vulgaris (Proteus vulgaris; [12]): 25 µg/mL
MIC against S. marcescens (Serratia marcescens; [13]): 12.5 µg/mL
MIC against K. pneumonia (Klebsiella pneumonia; [14]): 12.5 µg/mL
MIC against A. hydrophila (Aeromonas hydrophila; [15]): 12.5 µg/mL
MIC against P. mirabilis (Proteus mirabilis; [16]): 12.5 µg/mL
MIC against P. aeruginosa (Pseudomonas aeruginosa; [17]): 25 µg/mL
MIC against E. cloacae (Enterobacter cloacae; [18]): 25 µg/mL
MIC against E. coli BL21 (E. coli BL21; 10 h cultivation at 37° C.): 12.5 µg/mL

PRT1390 (EEDCLDPMCSNHGICVKGECHCSTGWGGVNCET; listed as Homo sapiens)
MIC against C. diversus (Citrobacter diversus; [10]): 25 µg/mL
MIC against M. catarrhalis (Moraxella catarrhalis; [11]): 50 µg/mL
MIC (E. coli DH5α): 12.5 µg/mL
MIC against P. vulgaris (Proteus vulgaris; [12]): 50 µg/mL
MIC against S. marcescens (Serratia marcescens; [13]): 50 µg/mL
MIC against K. pneumonia (Klebsiella pneumonia; [14]): 50 µg/mL
MIC against A. hydrophila (Aeromonas hydrophila; [15]): 50 µg/mL
MIC against P. mirabilis (Proteus mirabilis; [16]): 25 µg/mL
MIC against P. aeruginosa (Pseudomonas aeruginosa; [17]): 12.5 µg/mL
MIC against E. cloacae (Enterobacter cloacae; [18]): 12.5 µg/mL
MIC against E. coli BL21 (E. coli BL21; 10 h cultivation at 37° C.): 12.5 µg/mL

PRT937 (DIDECISKPCMNHGLCHNTQGSYMCECPPGFSGMDCE; listed as Homo sapiens)
MIC (Citrobacter diversus; [19]): 25 µg/mL
MIC (Moraxella catarrhalis; [20]): 12.5 µg/mL
MIC (E. coli DH5α): 25 µg/mL
MIC (Proteus vulgaris; [21]): 12.5 µg/mL
MIC (Serratia marcescens; [22]): 50 µg/mL
MIC (Klebsiella pneumonia; [23]): 25 µg/mL
MIC (Aeromonas hydrophila; [24]): 50 µg/mL
MIC (Proteus mirabilis; [25]): 50 µg/mL
MIC (Pseudomonas aeruginosa; [26]): 50 µg/mL
MIC (Enterobacter cloacae; [27]): 12.5 µg/mL
MIC (E. coli BL21; 10 h cultivation at 37° C.): 12.5 µg/mL

PRT143 (PRNPCRMSCQNHGRLNISTCHCHCPPGYTGRYCQ; listed as Homo sapiens)
MIC (μg/mL) C. diversus (Citrobacter diversus; [1]): 12.5 µg/mL
MIC (μg/mL) M. catarrhalis (Moraxella catarrhalis; [2]): 50 µg/mL
MIC (E. coli DH5α): 12.5 µg/mL
MIC (μg/mL) P. vulgaris (Proteus vulgaris; [3]): 12.5 µg/mL
MIC (μg/mL) S. marcescens (Serratia marcescens; [4]): 25 µg/mL
MIC (μg/mL) K. pneumonia (Klebsiella pneumonia; [5]): 12.5 µg/mL
MIC (μg/mL) A. hydrophila (Aeromonas hydrophila; [6]): 12.5 µg/mL
MIC (μg/mL) P. mirabilis (Proteus mirabilis; [7]): 25 µg/mL
MIC (μg/mL) P. aeruginosa (Pseudomonas aeruginosa; [8]): 12.5 µg/mL
MIC (μg/mL) E. cloacae (Enterobacter cloacae; [9]): 12.5 µg/mL
MIC (μg/mL) E. coli BL21 (E. coli BL21; 96-well plate, 37° C., 10 h): 12.5 µg/mL

PRT891 (DVDECASTPCKNGAKCLDGPNTYTCVCTEGYTGTHCE; listed as Homo sapiens)
MIC (μg/mL) C. diversus (Citrobacter diversus; [19]): 12.5 µg/mL
MIC (μg/mL) M. catarrhalis (Moraxella catarrhalis; [20]): 25 µg/mL
MIC (E. coli DH5α): 12.5 µg/mL
MIC (μg/mL) P. vulgaris (Proteus vulgaris; [21]): 25 µg/mL
MIC (μg/mL) S. marcescens (Serratia marcescens; [22]): 50 µg/mL
MIC (μg/mL) K. pneumonia (Klebsiella pneumonia; [23]): 25 µg/mL
MIC (μg/mL) A. hydrophila (Aeromonas hydrophila; [24]): 25 µg/mL
MIC (μg/mL) P. mirabilis (Proteus mirabilis; [25]): 12.5 µg/mL
MIC (μg/mL) P. aeruginosa (Pseudomonas aeruginosa; [26]): 12.5 µg/mL
MIC (μg/mL) E. cloacae (Enterobacter cloacae; [27]): 12.5 µg/mL
MIC (μg/mL) E. coli BL21 (E. coli BL21; 10 h cultivation at 37° C.): 25 µg/mL
